Experimental data as given in ChEMBL document CHEMBL1201862, “PubChem BioAssay data set” (2004).
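Tested at 5 concentrations; 48 h exposure; 96-well plates; endpoints linearly interpolated, else capped at highest concentration. GI50: concentration for 50% inhibition of growth.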 Activity calls are given as the source filed them. Cut-off read from the data, not from the text of the source: active = GI50 up to about 1.1 µM and inactive = higher.

What was measured:
Assay in all cases: inhibition of tumour cell growth, NCI panel, 48 h
[1] = tested on: HCT-15
[2] = tested on: NCI-H23
[3] = tested on: HOP-92
[4] = tested on: SK-OV-3
[5] = tested on: SNB-75
[6] = tested on: MDA-N
[7] = tested on: SF-295
[8] = tested on: MOLT-4
[9] = tested on: EKVX
[10] = tested on: KM12
[11] = tested on: M14
[12] = tested on: U-251
[13] = tested on: NCI-H460
[14] = tested on: PC-3
[15] = tested on: HL-60
[16] = tested on: K562
[17] = tested on: A498
[18] = tested on: SK-MEL-2
[19] = tested on: SF-539
[20] = tested on: NCI-H226
[21] = tested on: SR
[22] = tested on: SK-MEL-5
[23] = tested on: OVCAR-5
[24] = tested on: SK-MEL-28
[25] = tested on: NCI/ADR-RES
[26] = tested on: CCRF-CEM
[27] = tested on: UACC-62
[28] = tested on: CAKI-1
[29] = tested on: HT-29
[30] = tested on: Hs-578T
[31] = tested on: MDA-MB-231
[32] = tested on: RXF 393
[33] = tested on: 786-0
[34] = tested on: T47D
[35] = tested on: SN12C
[36] = tested on: BT-549
[37] = tested on: SW-620
[38] = tested on: IGROV-1
[39] = tested on: OVCAR-8
[40] = tested on: UO-31
[41] = tested on: UACC-257
[42] = tested on: RPMI-8226
[43] = tested on: MCF7
[44] = tested on: COLO 205
[45] = tested on: OVCAR-3
[46] = tested on: SF-268
[47] = tested on: SNB-19
[48] = tested on: Malme-3M
[49] = tested on: DU-145
[50] = tested on: ACHN
[51] = tested on: HCC 2998
[52] = tested on: TK-10
[53] = tested on: A549
[54] = tested on: LOX IMVI
[55] = tested on: MDA-MB-435
[56] = tested on: HOP-62
[57] = tested on: HCT-116
[58] = tested on: OVCAR-4

Q: How did the GI50 [1] turn out when `CSc1ncc2c(C#N)c3ccccn3c(=O)c2n1` was run?
A: Its GI50 is greater than 100 µM.

Q: What about the GI50 [2] of the same molecule?
A: Its GI50 is > 100 µM (inactive).

Q: And the GI50 [3]?
A: Its GI50 is > 100 µM (inactive).

Q: What about the GI50 [4] of the same molecule?
A: The GI50 was > 100 µM (inactive).

Q: What about the GI50 [5] of the same molecule?
A: The GI50 was > 100 µM (inactive).

Q: What about the GI50 [6] of the same molecule?
A: The GI50 was > 100 µM (inactive).

Q: And the GI50 [7]?
A: The GI50 was > 100 µM (inactive).

Q: And the GI50 [8]?
A: The GI50 was > 100 µM (inactive).

Q: And the GI50 [9]?
A: The GI50 was > 100 µM (inactive).

Q: And the GI50 [10]?
A: Its GI50 is > 100 µM (inactive).

Q: What about the GI50 [11] of the same molecule?
A: Its GI50 is > 100 µM (inactive).

Q: What about the GI50 [12] of the same molecule?
A: The GI50 was > 100 µM (inactive).

Q: And the GI50 [13]?
A: The GI50 was 57.3 µM (inactive).

Q: What about the GI50 [14] of the same molecule?
A: The GI50 was > 100 µM (inactive).

Q: And the GI50 [15]?
A: Its GI50 is > 100 µM (inactive).

Q: And the GI50 [16]?
A: The GI50 was > 100 µM (inactive).

Q: What about the GI50 [17] of the same molecule?
A: Its GI50 is > 100 µM (inactive).

Q: And the GI50 [18]?
A: The GI50 was > 100 µM (inactive).

Q: What about the GI50 [19] of the same molecule?
A: The GI50 was > 100 µM (inactive).

Q: What about the GI50 [20] of the same molecule?
A: Its GI50 is > 100 µM (inactive).

Q: And the GI50 [21]?
A: Its GI50 is > 100 µM (inactive).

Q: And the GI50 [22]?
A: Its GI50 is > 100 µM (inactive).

Q: What about the GI50 [23] of the same molecule?
A: Its GI50 is > 100 µM (inactive).

Q: And the GI50 [24]?
A: The GI50 was > 100 µM (inactive).

Q: What about the GI50 [25] of the same molecule?
A: The GI50 was > 100 µM (inactive).

Q: And the GI50 [26]?
A: Its GI50 is > 100 µM (inactive).

Q: What about the GI50 [27] of the same molecule?
A: Its GI50 is > 100 µM (inactive).

Q: What about the GI50 [28] of the same molecule?
A: The GI50 was > 100 µM (inactive).

Q: And the GI50 [29]?
A: The GI50 was > 100 µM (inactive).

Q: And the GI50 [30]?
A: The GI50 was > 100 µM (inactive).

Q: And the GI50 [31]?
A: The GI50 was > 100 µM (inactive).

Q: What about the GI50 [32] of the same molecule?
A: Its GI50 is > 100 µM (inactive).

Q: What about the GI50 [33] of the same molecule?
A: The GI50 was > 100 µM (inactive).

Q: And the GI50 [34]?
A: Its GI50 is > 100 µM (inactive).

Q: What about the GI50 [35] of the same molecule?
A: Its GI50 is > 100 µM (inactive).

Q: What about the GI50 [36] of the same molecule?
A: Its GI50 is > 100 µM (inactive).

Q: What about the GI50 [37] of the same molecule?
A: The GI50 was 52.6 µM (inactive).

Q: And the GI50 [38]?
A: The GI50 was > 100 µM (inactive).

Q: And the GI50 [39]?
A: The GI50 was > 100 µM (inactive).

Q: What about the GI50 [40] of the same molecule?
A: Its GI50 is > 100 µM (inactive).

Q: And the GI50 [41]?
A: The GI50 was > 100 µM (inactive).

Q: And the GI50 [42]?
A: Its GI50 is > 100 µM (inactive).

Q: And the GI50 [43]?
A: Its GI50 is > 100 µM (inactive).

Q: And the GI50 [44]?
A: The GI50 was > 100 µM (inactive).

Q: And the GI50 [45]?
A: The GI50 was > 100 µM (inactive).

Q: And the GI50 [46]?
A: Its GI50 is > 100 µM (inactive).

Q: And the GI50 [47]?
A: Its GI50 is > 100 µM (inactive).

Q: And the GI50 [48]?
A: The GI50 was > 100 µM (inactive).

Q: What about the GI50 [49] of the same molecule?
A: Its GI50 is > 100 µM (inactive).

Q: And the GI50 [50]?
A: The GI50 was > 100 µM (inactive).

Q: And the GI50 [51]?
A: The GI50 was > 100 µM (inactive).

Q: What about the GI50 [52] of the same molecule?
A: The GI50 was > 100 µM (inactive).

Q: And the GI50 [53]?
A: The GI50 was > 100 µM (inactive).

Q: And the GI50 [54]?
A: Its GI50 is > 100 µM (inactive).

Q: And the GI50 [55]?
A: The GI50 was > 100 µM (inactive).

Q: And the GI50 [56]?
A: Its GI50 is > 100 µM (inactive).

Q: And the GI50 [57]?
A: Its GI50 is 88.5 µM (inactive).

Q: And the GI50 [58]?
A: The GI50 was > 100 µM (inactive).

Q: For `Cc1cc(C)cc(Nc2cc(O)nc(O)n2)c1`, which GI50 [1] is on record?
A: The GI50 was greater than 100 µM.

Q: What about the GI50 [2] of the same molecule?
A: The GI50 was > 100 µM (inactive).

Q: What about the GI50 [3] of the same molecule?
A: The GI50 was > 100 µM (inactive).

Q: And the GI50 [5]?
A: Its GI50 is 15.8 µM (inactive).

Q: What about the GI50 [6] of the same molecule?
A: Its GI50 is > 100 µM (inactive).

Q: And the GI50 [7]?
A: The GI50 was > 100 µM (inactive).

Q: And the GI50 [8]?
A: Its GI50 is > 100 µM (inactive).

Q: And the GI50 [9]?
A: Its GI50 is > 100 µM (inactive).

Q: What about the GI50 [10] of the same molecule?
A: The GI50 was > 100 µM (inactive).

Q: And the GI50 [11]?
A: The GI50 was > 100 µM (inactive).

Q: And the GI50 [12]?
A: Its GI50 is > 100 µM (inactive).

Q: What about the GI50 [13] of the same molecule?
A: The GI50 was > 100 µM (inactive).

Q: What about the GI50 [14] of the same molecule?
A: Its GI50 is > 100 µM (inactive).

Q: And the GI50 [15]?
A: Its GI50 is > 100 µM (inactive).

Q: And the GI50 [16]?
A: The GI50 was > 100 µM (inactive).

Q: What about the GI50 [17] of the same molecule?
A: The GI50 was > 100 µM (inactive).

Q: And the GI50 [19]?
A: Its GI50 is > 100 µM (inactive).

Q: And the GI50 [20]?
A: Its GI50 is 58.3 µM (inactive).

Q: And the GI50 [21]?
A: The GI50 was > 100 µM (inactive).

Q: What about the GI50 [22] of the same molecule?
A: The GI50 was > 100 µM (inactive).

Q: And the GI50 [23]?
A: Its GI50 is > 100 µM (inactive).

Q: And the GI50 [24]?
A: Its GI50 is > 100 µM (inactive).

Q: What about the GI50 [25] of the same molecule?
A: The GI50 was > 100 µM (inactive).

Q: And the GI50 [26]?
A: The GI50 was > 100 µM (inactive).

Q: What about the GI50 [29] of the same molecule?
A: The GI50 was > 100 µM (inactive).

Q: And the GI50 [30]?
A: Its GI50 is > 100 µM (inactive).

Q: What about the GI50 [31] of the same molecule?
A: Its GI50 is > 100 µM (inactive).

Q: What about the GI50 [32] of the same molecule?
A: Its GI50 is 90.4 µM (inactive).

Q: What about the GI50 [33] of the same molecule?
A: Its GI50 is > 100 µM (inactive).

Q: And the GI50 [34]?
A: Its GI50 is 0.0649 µM (active).

Q: What about the GI50 [35] of the same molecule?
A: The GI50 was > 100 µM (inactive).

Q: What about the GI50 [36] of the same molecule?
A: Its GI50 is > 100 µM (inactive).

Q: And the GI50 [37]?
A: The GI50 was > 100 µM (inactive).

Q: And the GI50 [38]?
A: Its GI50 is > 100 µM (inactive).

Q: And the GI50 [39]?
A: The GI50 was > 100 µM (inactive).

Q: And the GI50 [40]?
A: Its GI50 is > 100 µM (inactive).

Q: What about the GI50 [41] of the same molecule?
A: The GI50 was > 100 µM (inactive).

Q: What about the GI50 [42] of the same molecule?
A: Its GI50 is > 100 µM (inactive).

Q: And the GI50 [43]?
A: Its GI50 is > 100 µM (inactive).

Q: What about the GI50 [44] of the same molecule?
A: Its GI50 is > 100 µM (inactive).

Q: And the GI50 [45]?
A: Its GI50 is > 100 µM (inactive).

Q: What about the GI50 [46] of the same molecule?
A: Its GI50 is > 100 µM (inactive).

Q: What about the GI50 [47] of the same molecule?
A: The GI50 was > 100 µM (inactive).

Q: And the GI50 [48]?
A: Its GI50 is > 100 µM (inactive).

Q: What about the GI50 [49] of the same molecule?
A: Its GI50 is > 100 µM (inactive).

Q: And the GI50 [50]?
A: The GI50 was > 100 µM (inactive).

Q: What about the GI50 [51] of the same molecule?
A: The GI50 was > 100 µM (inactive).

Q: What about the GI50 [52] of the same molecule?
A: The GI50 was > 100 µM (inactive).

Q: What about the GI50 [53] of the same molecule?
A: Its GI50 is > 100 µM (inactive).

Q: And the GI50 [54]?
A: Its GI50 is > 100 µM (inactive).

Q: What about the GI50 [55] of the same molecule?
A: Its GI50 is > 100 µM (inactive).

Q: What about the GI50 [56] of the same molecule?
A: The GI50 was > 100 µM (inactive).

Q: And the GI50 [57]?
A: Its GI50 is > 100 µM (inactive).

Q: And the GI50 [58]?
A: Its GI50 is > 100 µM (inactive).
